# Where no end group is shown, it is not given here.
# What was measured:
# K^d = settings: natural influenza epitope; cited from earlier work
Sequence,match of the K^d-eluted self peptide sequence with the K^d-restricted consensus motif (H-2K^d),K^d restriction / T cell epitope (K^d)
SYFPEITHI [SYFPEITHI (SEQ ID NO:2)],matches the consensus motif,
TYQRTRALV [TYQRTRALV (SEQ ID NO:1)],,natural K^d -restricted influenza epitope

# Source: US5747269A, “Determination of peptide motifs on MHC molecules” (Max-Planck-Gesellschaft zur Forderung der Wissenschaften …, priority 1991, dated 1998)
